Results as given in US10287301B2 (Achillion Pharmaceuticals, Inc., priority 2015, dated 2019).

molecular target: Human Factor D (Homo sapiens (Human), UniProt P00746); test: Human Factor D Assay; format: biochemical; settings: not given
Procedure: Human Factor D (purified from human serum, Complement Technology, Inc.) at 80 nM final concentration was incubated with test compound at various concentrations for 5 minutes at room temperature in 50 mM Tris, 1M NaCl, pH 7.5. A synthetic substrate Z-L-Lys-SBzl and DTNB (Ellman's reagent) are added to final concentrations of 100 μM each. […] IC50 values are calculated by nonlinear regression of complement Factor D reaction rates as a function of test compound concentration.

Chain of Human Factor D (P00746 26-253): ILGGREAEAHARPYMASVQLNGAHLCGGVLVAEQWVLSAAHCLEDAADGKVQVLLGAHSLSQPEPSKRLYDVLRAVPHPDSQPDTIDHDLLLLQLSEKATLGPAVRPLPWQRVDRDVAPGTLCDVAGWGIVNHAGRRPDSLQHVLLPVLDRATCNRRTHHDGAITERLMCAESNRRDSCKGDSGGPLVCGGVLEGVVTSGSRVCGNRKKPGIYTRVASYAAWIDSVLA

SMILES	IC50 [µM]
NC(=O)c1nn(CC(=O)N2C[C@H](F)C[C@H]2C(=O)Nc2ncc(I)cn2)c2ccc(-c3ccnnc3)cc12 [Compound 179, 1-(2-((2S,4R)-4-fluoro-2-(5-iodopyrimidin-2-ylcarbamoyl)pyrrolidin-1-yl)-2-oxoethyl)-5-(pyridazin-4-yl)-1H-indazole-3-carboxamide]	1 to 10

same assay, conditions: Human Factor D 80 nM, substrate Z-L-Lys-SBzl; read-out: IC50

SMILES	IC50 [µM]
CC(=O)c1cn(CC(=O)N2C[C@H](F)C[C@H]2C(=O)NCc2cccc(Cl)c2F)c2ccc(-c3cnc(C)nc3)cc12 [Compound 135, (2S,4R)-1-(2-(3-acetyl-5-(2-methylpyrimidin-5-yl)-1H-indol-1-yl)acetyl)-N-(3-chloro-2-fluorobenzyl)-4-fluoropyrrolidine-2-carboxamide]	< 1
CC(=O)c1cn(CC(=O)N2[C@@H]3C[C@@H]3C[C@H]2C(=O)Nc2cccc(-c3ccccc3Cl)c2F)c2ccc(-c3cncnc3)cc12 [Compound 15, (1R,3S,5R)-2-(2-(3-acetyl-5-(pyrimidin-5-yl)-1H-indol-1-yl)acetyl)-N-(2′-chloro-2-fluorobiphenyl-3-yl)-2-azabicyclo[3.1.0] hexane-3-carboxamide]	< 1
CC(=O)c1cn(CC(=O)N2C[C@H](F)C[C@H]2C(=O)Nc2nc(-c3cccc(Cl)c3)ns2)c2ccc(-c3ccnnc3)cc12 [Compound 147, (2S,4R)-1-(2-(3-acetyl-5-(pyridazin-4-yl)-1H-indol-1-yl)acetyl)-N-(3-(3-chlorophenyl)-1,2,4-thiadiazol-5-yl)-4-fluoropyrrolidine-2-carboxamide]	> 10
NC(=O)c1nn(CC(=O)N2[C@@H]3C[C@@H]3C[C@H]2C(=O)Nc2cccc(Br)n2)c2ccc(-c3cncnc3)cc12 [Compound 4]	< 1
COCCNc1ncc(-c2ccc3c(c2)c(C(C)=O)cn3CC(=O)N2C[C@H](F)C[C@H]2C(=O)Nc2cccc(-c3ccccc3Cl)c2F)cn1 [Compound 187, (2S,4R)-1-(2-(3-acetyl-5-(2-(2-methoxyethylamino)pyrimidin-5-yl)-1H-indol-1-yl)acetyl)-N-(2′-chloro-2-fluorobiphenyl-3-yl)-4-fluoropyrrolidine-2-carboxamide]	< 1
NC(=O)c1nn(CC(=O)N2C[C@H](F)C[C@H]2C(=O)N[C@H]2CCCC[C@@H]2OCc2ccccc2)c2ccc(-c3ccnnc3)cc12 [Compound 78, 1-(2-((2S,4R)-2-((1S,2S)-2-(benzyloxy)cyclohexyl-carbamoyl)-4-fluoropyrrolidin-1-yl)-2-oxoethyl)-5-(pyridazin-4-yl)-1H-indazole-3-carboxamide]	> 10
CC(=O)c1cn(CC(=O)N2C[C@H](F)C[C@H]2C(=O)Nc2cncc(Cl)n2)c2ccc(-c3ccnnc3)cc12 [Compound 88, (2S,4R)-1-(2-(3-acetyl-5-(pyridazin-4-yl)-1H-indol-1-yl)acetyl)-N-(6-chloropyrazin-2-yl)-4-fluoropyrrolidine-2-carboxamide]	< 1

same assay, conditions: Human Factor D assay of Example 8; Table 2; read-out: IC50

SMILES	IC50 [µM]
CC(=O)c1cn(CC(=O)N2C[C@H](F)C[C@H]2C(=O)Nc2cncc(Br)n2)c2ccc(-c3cnc4ccnn4c3)cc12 [Compound 323, (2S,4R)-1-(2-(3-acetyl-5-(pyrazolo[1,5-a]pyrimidin-6-yl)-1H-indol-1-yl)acetyl)-N-(6-bromopyrazin-2-yl)-4-fluoropyrrolidine-2-carboxamide]	< 1
CC(=O)c1nn(CC(=O)N2C[C@H](F)C[C@H]2C(=O)NCc2cccc(Cl)c2F)c2ccc(-c3cnc4ccnn4c3)cc12 [Compound 236, (2S,4R)-1-(2-(3-acetyl-5-(pyrazolo[1,5-a]pyrimidin-6-yl)-1H-indazol-1-yl)acetyl)-N-(3-chloro-2-fluorobenzyl)-4-fluoropyrrolidine-2-carboxamide]	< 1
CC(=O)c1nn(CC(=O)N2C[C@H](O)C[C@H]2C(=O)Nc2cccc(Br)n2)c2ccc(-c3cnc(C)nc3)cc12 [Compound 231, (2S,4R)-1-(2-(3-Acetyl-5-(2-methylpyrimidin-5-yl)-1H-indazol-1-yl)acetyl)-N-(6-bromopyridin-2-yl)-4-hydroxypyrrolidine-2-carboxamide]	< 1
CC(=O)c1nn(CC(=O)N2C[C@H](F)C[C@H]2C(=O)NC2CCN(C(=O)c3cc(Cl)c[nH]3)CC2)c2ccc(-c3cnc(C)nc3)cc12 [Compound 232, (2S,4R)-1-(2-(3-acetyl-5-(2-methylpyrimidin-5-yl)-1H-indazol-1-yl)acetyl)-N-(1-(4-chloro-1H-pyrrole-2-carbonyl)piperidin-4-yl)-4-fluoropyrrolidine-2-carboxamide]	< 1
CC(=O)c1nn(CC(=O)N2C[C@H](F)C[C@H]2C(=O)Nc2cccc(-c3ccc4[nH]cnc4c3Cl)c2F)c2ccc(-c3cnc(C)nc3)cc12 [Compound 214, (2S,4R)-1-(2-(3-acetyl-5-(2-methylpyrimidin-5-yl)-1H-indazol-1-yl)acetyl)-N-(3-(4-chloro-1H-benzo[d]imidazol-5-yl)-2-fluorophenyl)-4-fluoropyrrolidine-2-carboxamide]	< 1
CC(=O)c1cn(CC(=O)N2C[C@H](F)C[C@H]2C(=O)Nc2cccc(-c3ccccc3Cl)c2F)c2ccc(-c3cnc(C)c(Cl)c3)cc12 [Compound 207, (2S,4R)-1-(2-(3-acetyl-5-(5-chloro-6-methylpyridin-3-yl)-1H-indol-1-yl)acetyl)-N-(2′-chloro-2-fluorobiphenyl-3-yl)-4-fluoropyrrolidine-2-carboxamide]	< 1

same assay, conditions: Human Factor D, Table 3; read-out: IC50

SMILES	IC50 [µM]
CC(=O)c1nn(CC(=O)N2[C@H](C)CC[C@H]2C(=O)Nc2nc(Br)ccc2C)c2ccc(-c3cnc(C)nc3)cc12 [Compound 731, (2S,5R)-1-(2-(3-Acetyl-5-(2-methylpyrimidin-5-yl)-1H-indazol-1-yl)acetyl)-N-(6-bromo-3-methylpyridin-2-yl)-5-methylpyrrolidine-2-carboxamide]	< 1
CC(=O)c1nn(CC(=O)N2C[C@H](F)C[C@H]2C(=O)Nc2cccc(Br)n2)c2ccc(-c3cnc4cc(F)nn4c3)cc12 [Compound 683, (2S,4R)-1-(2-(3-Acetyl-5-(2-fluoropyrazolo[1,5-a]pyrimidin-6-yl)-1H-indazol-1-yl)acetyl)-N-(6-bromopyridin-2-yl)-4-fluoropyrrolidine-2-carboxamide]	< 1

same assay, conditions: Table 3; Human Factor D 80 nM, substrate Z-L-Lys-SBzl; read-out: IC50 (Stars)

SMILES	IC50 [µM]
CC(=O)c1nn(CC(=O)N2C[C@H](F)C[C@H]2C(=O)Nc2ncn(CC(F)(F)F)n2)c2ccc(-c3cnc(C)nc3)cc12 [Compound 378, (2S,4R)-1-(2-(3-Acetyl-5-(2-methylpyrimidin-5-yl)-1H-indazol-1-yl)acetyl)-4-fluoro-N-(1-(2,2,2-trifluoroethyl)-1H-1,2,4-triazol-3-yl)pyrrolidine-2-carboxamide]	< 1
CC(=O)c1nn(CC(=O)N2C[C@H](F)C[C@H]2C(=O)Nc2cccc(Br)n2)c2ccc(-c3cnc(-n4cccn4)nc3)cc12 [Compound 522, (2S,4R)-1-(2-(5-(2-(1H-Pyrazol-1-yl)pyrimidin-5-yl)-3-acetyl-1H-indazol-1-yl)acetyl)-N-(6-bromopyridin-2-yl)-4-fluoropyrrolidine-2-carboxamide]	< 1
COc1cc(Br)nc(NC(=O)[C@@H]2C[C@@H](F)CN2C(=O)Cn2nc(C(C)=O)c3cc(-c4cnc(C)nc4)ccc32)c1 [Compound 351]	< 1
Cc1cccc(NC(=O)[C@@H]2[C@H]3CC[C@H](C3)N2C(=O)Cn2cc(C(N)=O)c3cc(-c4cnc5c(c4)CCC5)ccc32)n1 [Compound 535, 5-(6,7-Dihydro-5H-cyclopenta[b]pyridin-3-yl)-1-(2-((1R,3S,4S)-3-(6-methylpyridin-2-ylcarbamoyl)-2-azabicyclo[2.2.1]heptan-2-yl)-2-oxoethyl)-1H-indole-3-carboxamide]	> 10
